Test results reported in paper PMC9283420, “Conformational changes in the catalytic region are responsible for heat-induced activation of hyperthermophilic homoserine dehydrogenase” (Communications Biology, 2022).

T1: immature StHSD (not heat-treated) (Sulfurisphaera tokodaii, UniProt F9VNG5)
T1 construct: gene hom; full length (residues 1-304 described), recombinant from plasmid pSTHSD in E. coli BL21 at 310 K, purified without heat treatment; homodimer with C303-C303 intersubunit disulfide (oxidized)
T1 sequence (F9VNG5 1-304): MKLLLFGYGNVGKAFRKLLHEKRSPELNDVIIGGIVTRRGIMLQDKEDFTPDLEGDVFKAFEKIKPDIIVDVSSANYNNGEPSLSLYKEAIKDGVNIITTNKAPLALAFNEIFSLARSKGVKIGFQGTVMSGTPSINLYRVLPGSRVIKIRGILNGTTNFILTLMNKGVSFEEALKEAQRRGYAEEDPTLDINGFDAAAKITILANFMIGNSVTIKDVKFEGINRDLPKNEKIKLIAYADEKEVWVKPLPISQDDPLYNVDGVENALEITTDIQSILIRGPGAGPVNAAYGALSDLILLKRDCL

T2: mature StHSD (heat-treated) (Sulfurisphaera tokodaii, UniProt F9VNG5)
T2 construct: gene hom; full length (residues 1-304 described), recombinant from plasmid pSTHSD in E. coli BL21, matured by heat treatment (343 K); homodimer
T2 sequence (F9VNG5 1-304): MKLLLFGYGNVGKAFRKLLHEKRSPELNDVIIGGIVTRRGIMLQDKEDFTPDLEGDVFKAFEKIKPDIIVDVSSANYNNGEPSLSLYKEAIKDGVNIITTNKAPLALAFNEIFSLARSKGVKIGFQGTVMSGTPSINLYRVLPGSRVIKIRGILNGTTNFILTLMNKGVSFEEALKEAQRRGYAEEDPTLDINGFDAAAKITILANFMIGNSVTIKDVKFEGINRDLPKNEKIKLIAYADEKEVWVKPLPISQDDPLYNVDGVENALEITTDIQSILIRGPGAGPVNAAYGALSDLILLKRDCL


Legend:
[1] = target: T1, immature StHSD (not heat-treated); assay: initial velocity of NADH production at […] nm; Morrison fit; format: biochemical; settings: read-out: apparent Ki
[2] = target: T2, mature StHSD (heat-treated); assay: as above; format: biochemical; settings: read-out: apparent Ki
[3] = target: the molecule itself; assay: crystal structure; hanging-drop vapor diffusion at 295 K; immature enzyme as apo-form (IM) and with NADP+ and 1,4-butanediol (IM/NADP/BU); space group P2(1), two subunits in the asymmetric unit

| Ki [1] [µM] | Ki [2] [µM] | Molecule | stoichiometry N [3] [subunits] |
| --- | --- | --- | --- |
| 26 ± 1.7 | 48 ± 1.2 | NC(=O)c1ccc[n+]([C@@H]2O[C@H](COP(=O)(O)OP(=O)(O)OC[C@H]3O[C@@H](n4cnc5c(N)ncnc54)[C@H](OP(=O)(O)O)[C@@H]3O)[C@@H](O)[C@H]2O)c1 [NADP^+] | – |
| – | – | homoserine dehydrogenase from the hyperthermophilic archaeon Sulfurisphaera tokodaii strain 7 (StHSD), immature enzyme (enzyme, disulfide bond between the C303 residues of the two subunits, homoserine dehydrogenase, Sulfurisphaera tokodaii strain 7; The same recombinant enzyme after heat treatment is called the mature enzyme (cited structures 4YDR, 5X9D); The IM/NADP/BU crystal form also holds NADP+ and 1,4-butanediol; also called immature StHSD; IM/NADP/BU; source: Blue Sepharose for the apo-form) MKLLLFGYGNVGKAFRKLLHEKRSPELNDVIIGGIVTRRGIMLQDKEDFTPDLEGDVFKAFEKIKPDIIVDVSSANYNNGEPSLSLYKEAIKDGVNIITTNKAPLALAFNEIFSLARSKGVKIGFQGTVMSGTPSINLYRVLPGSRVIKIRGILNGTTNFILTLMNKGVSFEEALKEAQRRGYAEEDPTLDINGFDAAAKITILANFMIGNSVTIKDVKFEGINRDLPKNEKIKLIAYADEKEVWVKPLPISQDDPLYNVDGVENALEITTDIQSILIRGPGAGPVNAAYGALSDLILLKRDCL | 2 |
